Reference: US10351718B2, “Optical filter and imaging device” (AGC Inc., priority 2015, dated 2019)

Assay: Absorption characteristic of the dye in dichloromethane
Type: physicochemical
Conditions: for λ80 (wavelength with 80% transmittance on shorter wavelength side of λmax) / λmax − λ80: dichloromethane, transmittance at λmax set to 10%; for εA (maximum absorption coefficient in a wavelength of 430 to 550 nm) / εB (maximum absorption coefficient in a wavelength of 670 to 730 nm) / εB/εA / λmax (maximum absorption wavelength): dissolved in dichloromethane
Description: The dyes obtained above were each dissolved in dichloromethane, and using an ultraviolet-visible spectrophotometer (made by Hitachi High Technologies Co., Ltd., U-4100 type), each spectral transmittance curve was measured, from which a maximum absorption wavelength λmax, a wavelength λ80 with which the transmittance becomes 80% on a shorter wavelength side than the maximum absorption wavelength with the transmittance at the maximum absorption wavelength set to 10%, the difference between the maximum absorption wavelength λmax and the wavelength λ80 (λmax−λ80), a maximum absorption coefficient εA in a wavelength of 430 to 550 nm, a maximum absorption coefficient εB in a wavelength of 670 to 730 nm, and a ratio of these (εB/εA) were calculated. Note that measurement of the dye (A9) was not performed because its solubility was low. Further, for each of the following spectral transmittance curves, an ultraviolet-visible spectrophotometer (made by Hitachi High Technologies Co., Ltd., U-4100 type) was used.

Structure (SMILES) | λ80 (wavelength with 80% transmittance on shorter wavelength side of λmax) [nm] | λmax − λ80 [nm] | εA (maximum absorption coefficient in a wavelength of 430 to 550 nm) | εB (maximum absorption coefficient in a wavelength of 670 to 730 nm) | εB/εA | λmax (maximum absorption wavelength) [nm]
CCCc1ccc(S(=O)(=O)Nc2cc3c(cc2C2=C([O-])C(=c4cc5c(cc4NS(=O)(=O)c4ccc(CCC)cc4)=[N+](C)C(C)C5(C)C)C2=O)C(C)(C)C(C)N3C)cc1 (stereo not drawn) [Dye A1-6] | 633 | 60 | 0.0139 | 1 | 71.9 | 693
CCCCCc1ccc(S(=O)(=O)Nc2cc3c(cc2C2=C([O-])C(=c4cc5c(cc4NS(=O)(=O)c4ccc(CCCCC)cc4)=[N+](C)C(C)C5(C)C)C2=O)C(C)(C)C(C)N3C)cc1 (stereo not drawn) [Dye A1-7] | 633 | 60 | 0.0147 | 1 | 68.0 | 693
CCCS(=O)(=O)Nc1cc2c(cc1C1=C([O-])C(=c3cc4c(cc3NS(=O)(=O)CCC)=[N+](C(C)C)C(C)C4(C)C)C1=O)C(C)(C)C(C)N2C(C)C (stereo not drawn) [Dye A1-13] | 645 | 53 | 0.0113 | 1 | 88.5 | 698
CCCc1ccc(S(=O)(=O)Nc2cc3c(cc2C2=C([O-])C(=c4cc5c(cc4NS(=O)(=O)c4ccc(CCC)cc4)=[N+](C(C)C)C(C)C5(C)C)C2=O)C(C)(C)C(C)N3C(C)C)cc1 (stereo not drawn) [Dye A1-14] | 647 | 52 | 0.0121 | 1 | 82.6 | 699
CC(C)N1c2cc(NS(=O)(=O)C(F)(F)C(F)(F)C(F)(F)C(F)(F)F)c(C3=C([O-])C(=c4cc5c(cc4NS(=O)(=O)C(F)(F)C(F)(F)C(F)(F)C(F)(F)F)=[N+](C(C)C)C(C)C5(C)C)C3=O)cc2C(C)(C)C1C (stereo not drawn) [Dye A1-17] | 653 | 52 | 0.0081 | 1 | 123 | 705
Cc1ccccc1S(=O)(=O)Nc1cc2c(cc1C1=C([O-])C(=c3cc4c(cc3NS(=O)(=O)c3ccccc3C)=[N+](C(C)C)C(C)C4(C)C)C1=O)C(C)(C)C(C)N2C(C)C (stereo not drawn) [Dye A1-18] | 649 | 50 | 0.0110 | 1 | 90.9 | 699
CCC(C)(C)N1c2cc(NS(=O)(=O)C(F)(F)F)c(C3=C([O-])C(=c4cc5c(cc4NS(=O)(=O)C(F)(F)F)=[N+](C(C)(C)CC)C(C)C5(C)C)C3=O)cc2C(C)(C)C1C (stereo not drawn) [Dye A1-22] | 660 | 51 | 0.0122 | 1 | 82.0 | 711
CCC(C)(C)N1c2cc(NS(=O)(=O)C(F)(F)C(F)(F)C(F)(F)C(F)(F)F)c(C3=C([O-])C(=c4cc5c(cc4NS(=O)(=O)C(F)(F)C(F)(F)C(F)(F)C(F)(F)F)=[N+](C(C)(C)CC)C(C)C5(C)C)C3=O)cc2C(C)(C)C1C (stereo not drawn) [Dye A1-23] | 663 | 50 | 0.0124 | 1 | 80.6 | 713
CCCCCCCCS(=O)(=O)Nc1cc2c(cc1C1=C([O-])C(=c3cc4c(cc3NS(=O)(=O)CCCCCCCC)=[N+](C(C)C)C(C)(CC)C4(C)C)C1=O)C(C)(C)C(C)(CC)N2C(C)C (stereo not drawn) [Dye A1-25] | 653 | 51 | 0.0130 | 1 | 77.6 | 704

Further lines, results first:

λ80 (wavelength with 80% transmittance on shorter wavelength side of λmax) [nm] | λmax − λ80 [nm] | εA (maximum absorption coefficient in a wavelength of 430 to 550 nm) | εB (maximum absorption coefficient in a wavelength of 670 to 730 nm) | εB/εA | λmax (maximum absorption wavelength) [nm] | Structure (SMILES)
637 | 61 | 0.0065 | 1 | 154 | 698 | CC1N(C)c2cc(NS(=O)(=O)C(F)(F)C(F)(F)C(F)(F)C(F)(F)F)c(C3=C([O-])C(=c4cc5c(cc4NS(=O)(=O)C(F)(F)C(F)(F)C(F)(F)C(F)(F)F)=[N+](C)C(C)C5(C)C)C3=O)cc2C1(C)C (stereo not drawn) [Dye A1-3]
633 | 62 | 0.0104 | 1 | 96.2 | 695 | CC1N(C)c2cc(NS(=O)(=O)c3ccccc3C(F)(F)F)c(C3=C([O-])C(=c4cc5c(cc4NS(=O)(=O)c4ccccc4C(F)(F)F)=[N+](C)C(C)C5(C)C)C3=O)cc2C1(C)C (stereo not drawn) [Dye A1-4]
648 | 52 | 0.0110 | 1 | 90.9 | 700 | CC(C)N1c2cc(NS(=O)(=O)c3ccc(F)cc3)c(C3=C([O-])C(=c4cc5c(cc4NS(=O)(=O)c4ccc(F)cc4)=[N+](C(C)C)C(C)C5(C)C)C3=O)cc2C(C)(C)C1C (stereo not drawn) [Dye A1-11]
648 | 52 | 0.0116 | 1 | 86.2 | 700 | Cc1ccc(S(=O)(=O)Nc2cc3c(cc2C2=C([O-])C(=c4cc5c(cc4NS(=O)(=O)c4ccc(C)cc4)=[N+](C(C)C)C(C)C5(C)C)C2=O)C(C)(C)C(C)N3C(C)C)cc1 (stereo not drawn) [Dye A1-12]
648 | 51 | 0.0126 | 1 | 79.4 | 699 | CCCCCc1ccc(S(=O)(=O)Nc2cc3c(cc2C2=C([O-])C(=c4cc5c(cc4NS(=O)(=O)c4ccc(CCCCC)cc4)=[N+](C(C)C)C(C)C5(C)C)C2=O)C(C)(C)C(C)N3C(C)C)cc1 (stereo not drawn) [Dye A1-19]
651 | 52 | 0.0100 | 1 | 100 | 703 | CC(C)N1c2cc(N3S(=O)(=O)C(F)(F)C(F)(F)S3(=O)=O)c(C3=C([O-])C(=c4cc5c(cc4N4S(=O)(=O)C(F)(F)C(F)(F)S4(=O)=O)=[N+](C(C)C)C(C)C5(C)C)C3=O)cc2C(C)(C)C1C (stereo not drawn) [Dye A1-20]
651 | 49 | 0.0110 | 1 | 89.7 | 700 | CCCCCCCCS(=O)(=O)Nc1cc2c(cc1C1=C([O-])C(=c3cc4c(cc3NS(=O)(=O)CCCCCCCC)=[N+](C(C)C)C(C)(C)C4(C)C)C1=O)C(C)(C)C(C)(C)N2C(C)C [Dye A1-24]
654 | 53 | 0.0140 | 1 | 71.6 | 707 | CCCCCCCCS(=O)(=O)Nc1cc2c(cc1C1=C([O-])C(=c3cc4c(cc3NS(=O)(=O)CCCCCCCC)=[N+](C(C)C)C(C)(C(C)C)C4(C)C)C1=O)C(C)(C)C(C)(C(C)C)N2C(C)C (stereo not drawn) [Dye A1-26]
